Test results published in US9642860B2, “Combinations of corroles and statins” (Technion Research & Development Foundation Limited, priority 2011, dated 2017).

Columns and labels:
[1] = tested on: J774.A1 macrophages; assay: Cholesterol biosynthesis model: acetate incorporation into cholesterol in macrophages; type: cell-based, Murine; conditions: 24 h incubation
From the text: Accumulation of cholesterol within arterial macrophages is a step in the development of atherosclerosis (M. Aviram 2004). Statins can lower the levels of cholesterol biosynthesis in arterial macrophages. The cholesterol biosynthesis model which was employed determined the effect of various agents (pravastatin alone, fluvastatin alone, 1-Fe alone in various concentrations, 1-Fe in combination with pravastatin and 1-Fe in combination with fluvastatin) on reduction of cholesterol biosynthesis in macrophages.
Murine J774.A1 macrophages were cultured in DMEM (Dulbecco's Modified Eagle Medium) containing 5% FCS (fetal calf serum) in a humidified incubator. […] The effect of different concentrations of 1-Fe on cholesterol biosynthesis from acetate and on 1-Fe cellular uptake were determined by incubating J774.A1 macrophages for 24 h (hours) with 0, 5, 20 or 50 μM (micromolar) of 1-Fe. Intracellular corrole concentrations were then determined by a chemiluminescent method, and cholesterol biosynthesis was assayed by measuring acetate incorporation into cholesterol. […] Unesterified cholesterol spots were visualized by iodine vapor (using appropriate standard), scraped into scintillation vials and counted in a β-counter. 0.1 M (molar) NaOH (sodium hydroxide) was added to the remains of the cells, and cellular proteins were measured the following day by the Lowry method. […]

[2] = biological target: T1, HMG-CoA reductase (HMGCR) (Homo sapiens, UniProt P04035); assay: HMG-CoA reductase-catalyzed reaction inhibition (CoA byproduct by HPLC); type: biochemical; conditions: read-out: Inhibition Percent
T1 sequence (P04035 426-888 limits assumed): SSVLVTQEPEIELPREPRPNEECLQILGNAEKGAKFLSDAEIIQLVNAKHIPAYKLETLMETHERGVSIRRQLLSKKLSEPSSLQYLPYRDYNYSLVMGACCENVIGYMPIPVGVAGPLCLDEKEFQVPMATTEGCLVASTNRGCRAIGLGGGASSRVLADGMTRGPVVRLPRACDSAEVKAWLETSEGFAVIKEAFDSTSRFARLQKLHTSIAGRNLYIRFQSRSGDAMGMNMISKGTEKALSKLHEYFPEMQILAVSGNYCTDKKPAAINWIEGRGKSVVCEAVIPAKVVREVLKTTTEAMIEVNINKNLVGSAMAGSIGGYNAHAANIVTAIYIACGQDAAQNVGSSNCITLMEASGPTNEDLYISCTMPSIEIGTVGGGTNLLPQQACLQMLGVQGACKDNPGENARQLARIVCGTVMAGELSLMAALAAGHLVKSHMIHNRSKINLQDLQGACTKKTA
Experimental: The effects of 1-Fe and statins fluvastatin and pravastatin alone and in combination on mevalonic acid production were tested using the following in vitro method.
Substrates of the HMGCR catalyzed reaction, NADPH (400 μM] and HMGCR (200 μM) were mixed in activity buffer comprising 100 mM sodium phosphate buffer, 1 mM ethylenediaminetetraacetic acid (EDTA), 10 mM dithiothreitol, 2% dimethyl sulfoxide, and 1 mM magnesium sulphate, the mixture having a pH of 6.8. 1-Fe, PS, or FS (alone or as a corrole statin combination) were added to the substrate mixture at various concentrations, followed by addition of HMGCR (0.48 μM). Reactions were then incubated at 37° C. for 15 minutes, followed by injection of 80 μl (microliter) to a reverse phase GraceSmart RP18 high performance liquid chromatography column (HPLC). […] As mevalonate concentration is difficult to identify in reaction mixture because it has no absorbance in the UV range, the yield of each reaction was calculated from the amount of CoA byproduct formed in the reaction after subtracting the baseline amount of CoA present as an impurity in the commercial HMG-CoA determined by injecting the substrate mixture alone. The inhibition percentage was calculated from the yield of each reaction relative to the yield of the enzymatic reaction without the addition of inhibitor.

[3] = high dose 80 mg, over five years, compared to moderate dose statins; cited from earlier work

For `CC(C)n1c(/C=C/C(O)CC(O)CC(=O)O)c(-c2ccc(F)cc2)c2ccccc21` (centres unmarked) [FS, fluvastatin], the “reduction of macrophage biosynthesis of cholesterol” value ([1]; 20 μM FS alone) was 25% and the inhibition at 1 µM ([2]; FS 1 micromolar alone) was 9%.
With `CC[C@H](C)C(=O)O[C@H]1C[C@H](O)C=C2C=C[C@H](C)[C@H](CC[C@@H](O)C[C@@H](O)CC(=O)O)[C@H]21` [PS, pravastatin] the “reduction of macrophage biosynthesis of cholesterol” value ([1]; 200 μM PS alone) was 10% and the inhibition at 5 µM ([2]; PS 5 micromolar alone) was 17%.
For `CC(C)c1c(C(=O)Nc2ccccc2)c(-c2ccccc2)c(-c2ccc(F)cc2)n1CC[C@@H](O)C[C@@H](O)CC(=O)O` [atorvastatin], the “increase in the chance of developing Type 2 diabetes” value [3] is listed as 12%.
